Measurements taken from ChEMBL document CHEMBL3526040, “Immune-mediated agranulocytosis caused by the cocaine adulterant levamisole: a case for reactive metabolite(s) involvement” (Drug Metab Dispos, 2012).

Key:
[1] = Drug excretion in human urine treated with [3H]-levamisole at 150 mg, po; assay type: ADME, tissue-based; conditions: in vivo
[2] = Volume of distribution at steady state in dog at 10 mg/kg, iv; conditions: in vivo
[3] = AUC in human at 150 mg, po; conditions: plasma
[4] = in vivo; conditions: dog, po, 10 mg/kg
Description: Cmax in fed dog at 10 mg/kg, po

[5] = in vivo; conditions: dog, plasma, po, 10 mg/kg
Description: AUC in fed dog at 10 mg/kg, po

[6] = in vivo; conditions: dog, plasma, iv, 10 mg/kg
Description: AUC in dog at 10 mg/kg, iv

[7] = Half life in blood (unknown origin)
[8] = in vivo; conditions: dog, po, 10 mg/kg; remark: listed apart in the source
Description: Tmax in fed dog at 10 mg/kg, po

[9] = Renal clearance in male human at 150 mg, po; conditions: in vivo
[10] = Tmax in human at 150 mg, po; conditions: in vivo
[11] = in vivo; conditions: dog, po, 10 mg/kg; remark: listed apart in the source
Description: Oral bioavailability in fasted dog at 10 mg/kg

[12] = in vivo; conditions: dog, po, 10 mg/kg; remark: listed apart in the source
Description: Elimination half life in fed dog at 10 mg/kg, po

[13] = AUC in male human at 150 mg, po; conditions: plasma
[14] = Cmax in male human at 150 mg, po; conditions: in vivo
[15] = in vivo; conditions: dog, plasma, po, 10 mg/kg; remark: listed apart in the source
Description: AUC in fasted dog at 10 mg/kg, po

[16] = Elimination half life in female human at 150 mg, po; conditions: in vivo
[17] = Oral bioavailability in female human at 150 mg; conditions: in vivo
[18] = in vivo; conditions: dog, po, 10 mg/kg; remark: listed apart in the source
Description: Cmax in fasted dog at 10 mg/kg, po

[19] = Plasma clearance in male human at 150 mg, po
[20] = in vivo; conditions: dog, po, 10 mg/kg; remark: listed apart in the source
Description: Tmax in fasted dog at 10 mg/kg, po

[21] = Elimination half life in male human at 150 mg, po; conditions: in vivo
[22] = in vivo; conditions: dog, plasma, iv, 10 mg/kg; remark: listed apart in the source
Description: Plasma clearance in dog at 10 mg/kg, iv

[23] = AUC in female human at 150 mg, po; conditions: plasma
[24] = Oral bioavailability in human at 150 mg; conditions: in vivo
[25] = Oral bioavailability in male human at 150 mg; conditions: in vivo
[26] = Elimination half life in human at 150 mg, po; conditions: in vivo
[27] = Renal clearance in human at 150 mg, po; conditions: in vivo
[28] = Tmax in female human at 150 mg, po; conditions: in vivo
[29] = in vivo; conditions: dog, po, 10 mg/kg; remark: listed apart in the source
Description: Elimination half life in fasted dog at 10 mg/kg, po

[30] = in vivo; conditions: dog, iv, 10 mg/kg
Description: Elimination half life in dog at 10 mg/kg, iv

[31] = Renal excretion in human at 150 mg, po; conditions: urine
[32] = in vivo; conditions: dog, po, 10 mg/kg; remark: listed apart in the source
Description: Oral bioavailability in fed dog at 10 mg/kg

[33] = Cmax in female human at 150 mg, po; conditions: in vivo
[34] = Tmax in male human at 150 mg, po; conditions: in vivo
[35] = Renal clearance in female human at 150 mg, po; conditions: in vivo
[36] = Cmax in human at 150 mg, po; conditions: in vivo
[37] = Plasma clearance in female human at 150 mg, po
[38] = Plasma clearance in human at 150 mg, po

Oc1ccc([C@H]2CN3CCSC3=N2)cc1
Drug excretion [1]: 25%

O=C(O)[C@H]1O[C@@H](Oc2ccc([C@H]3CN4CCSC4=N3)cc2)[C@H](O)[C@@H](O)[C@@H]1O
Drug excretion [1]: 25%

c1ccc([C@H]2CN3CCSC3=N2)cc1 [LEVAMISOLE]
Vd [2]: 1.42 L/kg | AUC [3]: 3070 ng·h/mL | Cmax [4]: 1980 ng/mL | AUC [5]: 8940 ng·h/mL | AUC [6]: 18100 ng·h/mL | half-life [7]: < 6 h | Tmax [8]: 4.5 h | CL renal [9]: 31 mL/min | Tmax [10]: 1.5 h | bioavailability [11]: 64% | half-life [12]: 1.6 h | AUC [13]: 3070 ng·h/mL | Cmax [14]: 672 ng/mL | AUC [15]: 12200 ng·h/mL | half-life [16]: 5.9 h | bioavailability [17]: 64.7% | Cmax [18]: 3330 ng/mL | CL/F [19]: 8.25 mL/min/kg | Tmax [20]: 1.8 h | half-life [21]: 5.4 h | clearance [22]: 8.92 mL/min/kg | AUC [23]: 3070 ng·h/mL | bioavailability [24]: 62.5% | bioavailability [25]: 61.5% | half-life [26]: 5.6 h | CL renal [27]: 29.2 mL/min | Tmax [28]: 1.1 h | half-life [29]: 1.3 h | half-life [30]: 1.8 h | dose excreted [31]: 3% | bioavailability [32]: 44% | Cmax [33]: 820 ng/mL | Tmax [34]: 1.7 h | CL renal [35]: 25 mL/min | Cmax [36]: 717 ng/mL | CL/F [37]: 7.56 mL/min/kg | CL/F [38]: 8.04 mL/min/kg
